Test results published in the supplement of paper PMC10307832.

How the values were obtained:
Assay in all cases: relative viability (nuclei count vs DMSO), 5 days (fraction); higher = more cells survive
[1] = compound: CC1(C)CCC(CN2CCN(c3ccc(C(=O)NS(=O)(=O)c4ccc(NCC5CCOCC5)c([N+](=O)[O-])c4)c(Oc4cnc5[nH]ccc5c4)c3)CC2)=C(c2ccc(Cl)cc2)C1 [Venetoclax] + CS(=O)(=O)CCNCc1ccc(-c2ccc3ncnc(Nc4ccc(OCc5cccc(F)c5)c(Cl)c4)c3c2)o1 [Lapatinib] (partner 2 µM)
Procedure, shortened: (§1)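 Lung cancer cell lines, seeded in 1536-well plates, were treated the following day by pin tool with a single drug or with five library-drug doses (not always all listed) in √10 steps on top of a fixed anchor-drug dose. Cells were fixed and nuclei stained in one step after 5 days, and nuclei were counted. Relative viability is the nuclei count for treated wells divided by that for vehicle wells, reported as medians of duplicate plates.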

[2] = compound: CC1(C)CCC(CN2CCN(c3ccc(C(=O)NS(=O)(=O)c4ccc(NCC5CCOCC5)c([N+](=O)[O-])c4)c(Oc4cnc5[nH]ccc5c4)c3)CC2)=C(c2ccc(Cl)cc2)C1 [Venetoclax] + Cc1nc(Nc2ncc(C(=O)Nc3c(C)cccc3Cl)s2)cc(N2CCN(CCO)CC2)n1 [Dasatinib] (partner 0.075 µM)
Procedure, shortened: as §1

[3] = compound: Cn1cnc2c(F)c(Nc3ccc(Br)cc3Cl)c(C(=O)NOCCO)cc21 [Selumetinib] + C[C@@H](Oc1cc(-c2cnn(C3CCNCC3)c2)cnc1N)c1c(Cl)ccc(F)c1Cl [Crizotinib] (partner 1 µM)
Procedure, shortened: as §1

[4] = compound: Cn1cnc2c(F)c(Nc3ccc(Br)cc3Cl)c(C(=O)NOCCO)cc21 [Selumetinib] + O=C(c1cc(Cc2n[nH]c(=O)c3ccccc23)ccc1F)N1CCN(C(=O)C2CC2)CC1 [Olaparib] (partner 8 µM)
Procedure, shortened: as §1

Cell Line	relative viability ([1]; first compound 0.01 µM)	relative viability ([1]; first compound 0.03162 µM)	relative viability ([1]; first compound 0.1 µM)	relative viability ([1]; first compound 0.3162 µM)	relative viability ([1]; first compound 1 µM)	relative viability ([2]; first compound 0.01 µM)	relative viability ([2]; first compound 0.03162 µM)	relative viability ([2]; first compound 0.1 µM)	relative viability ([2]; first compound 0.3162 µM)	relative viability ([2]; first compound 1 µM)	relative viability ([3]; first compound 0.02 µM)	relative viability ([3]; first compound 0.06325 µM)	relative viability ([3]; first compound 0.2 µM)	relative viability ([3]; first compound 0.6325 µM)	relative viability ([4]; first compound 0.02 µM)	relative viability ([4]; first compound 0.06325 µM)	relative viability ([4]; first compound 0.2 µM)	relative viability ([4]; first compound 0.6325 µM)
LOU-NH91	0.757	0.843	0.737	0.778	0.75	0.511	0.642	0.532	0.58	0.495	0.709	0.715	0.683	0.677	0.914	0.845	0.864	0.806
HOP-62	1.29	1.12	1.02	1.01	0.896	0.557	0.582	0.616	0.709	0.625	0.841	0.877	0.909	0.515	0.474	0.397	0.421	0.353
NCI-H1792	0.933	0.946	0.869	0.916	0.803	0.843	0.803	0.556	0.759	0.755	0.986	0.86	0.816	0.682	0.256	0.353	0.439	0.235
HCC-15	0.887	0.855	0.774	0.796	0.774	0.607	0.627	0.587	0.645	0.549	0.669	0.498	0.395	0.256	0.694	0.622	0.575	0.368
HCC-366	1.1	1.01	0.933	1.04	0.951	0.618	0.592	0.523	0.56	0.54	0.492	0.462	0.308	0.238	0.415	0.296	0.198	0.19
LU99A	0.865	1	0.884	0.885	0.986	0.625	0.632	0.659	0.516	0.583	0.615	0.556	0.558	0.544	0.253	0.265	0.287	0.267
SW 1573	1.15	0.979	0.935	1.08	0.966	0.431	0.445	0.517	0.599	0.452	0.762	0.683	0.639	0.597	0.479	0.403	0.368	0.437
NCI-H2170	0.255	0.29	0.255	0.254	0.268	0.569	0.508	0.373	0.556	0.502	1.17	1.11	1.03	1.15	0.62	0.594	0.649	0.568
NCI-H2087	0.958	1.16	1.07	1.09	1.05	0.848	0.839	0.997	0.936	0.76	0.989	0.706	0.665	0.434	0.527	0.38	0.322	0.243
NCI-H1755	1.05	1.08	0.796	1.04	0.961	0.398	0.404	0.43	0.402	0.378	0.895	0.765	0.802	0.842	0.848	0.787	0.807	0.847
NCI-H1650	0.764	0.873		1.01	0.81	0.362	0.352	0.29	0.324	0.305	0.97	0.863	0.888	0.786	0.669	0.654	0.712	0.646
HARA	0.876	0.68	0.647	0.822	0.758	0.422	0.258	0.228	0.249	0.216	1.02	1.02	0.876	0.602	0.768	0.727	0.651	0.466
NCI-H1975	1.02	0.875	0.903	0.948	0.863	0.355	0.4	0.372	0.318	0.322	1.1	0.898	0.933	0.766	0.799	0.88	0.658	0.582
SK-MES-1	0.462	0.53	0.461	0.425	0.463	0.4	0.383	0.329	0.408	0.376	1	0.905	0.974	0.741	0.728	0.779	0.695	0.599
NCI-H1666	0.536	0.664	0.519	0.624	0.515	0.816	0.821	0.838	0.708	0.766	0.956	0.791	0.829	0.614	0.722	0.711	0.715	0.686
NCI-H2228	1.15	1.29	1.21	1.09	0.954	0.555	0.546	0.496	0.488	0.447	0.527	0.595	0.351	0.413	0.754	0.69	0.685	0.608
PC-14	0.367	0.328	0.291	0.361	0.323	0.337	0.272	0.284	0.259	0.253	0.867	0.814	0.961	0.949	0.294	0.226	0.252	0.241
